A short description of series [1]: In vivo pharmacokinetics test. The following applies: plasma; male CD‐1 (ICR) mouse, single intravenous 5 mg kg^−1, sampled 0.033–48 h, peripheral blood, noncompartmental analysis (Phoenix WinNonlin 6.3). How it is done:
A pharmacokinetics study was conducted at WuXiAppTec., Ltd. In this study, male CD‐1 (ICR) mouse was given a single intravenous injection of 5 mg kg^−1 of ACP52CGK. Blood samples were collected prior to dosing on day 0 and at various time points, including 0.033, 0.083, 0.25, 0.5, 1, 2, 6, 12, 24, and 48 h after dosing. The data collected from these samples were used to calculate pharmacokinetic parameters using the IV‐noncompartmental analysis model 201 in Phoenix WinNonlin version 6.3.
Figure S23. Pharmacokinetics analysis of ACP52CGK
A) PK parameters of ACP52CGK in CD-1(ICR) mice, calculated using the noncompartmental analysis
model 201 of Phoenix WinNonlin version 6.3. B) Mean plasma concentration of ACP52CGK at 0.033,

For series [2], the system named is A431 epidermoid carcinoma. As to the kind of experiment: A431 CDX mouse model. It counts as in vivo. The conditions noted are these: intravenous injection every 2 or 3 days from day 14. The protocol: Animal experiments were conducted in accordance with ethical guidelines, and all protocols were approved by the Institutional Animal Care and Use Committee under Hanyang University (approval numbers, 2014‐0016A, 2018‐0049A, 2018‐0207A, and 2019‐0169A), Chung‐Ang University (approval number, 2015‐00022), Chungbuk University (approval number, CBNUA‐1072‐17‐02), and Konkuk University (approval number, KU17130). To establish xenograft mice models, Hep3B, A431, U343, and PC9 cells were subcutaneously injected into the flank of Balb/c nude mice. For the MDA‐MB‐231 (LM1) cell line, it was implanted into the mammary fat pad of immunodeficient mice (NPG mice). […] Tumor volume was calculated using the formula of length × width^2)/2. […] The in vivo administration amount was determined based on the concentration of ACP52C confirmed at the cellular level, which was 2 µM. […] For ACP52C derivatives, the amount was adjusted to ensure a similar molar quantity of peptide injection, taking their molecular weights into account. For instance, in the case of ACP52CGK, ≈1.67 times the quantity was used compared to ACP52C to achieve an equivalent molar quantity. […] Hematoxylin and eosin (H&E)‐stained tissue sections were analyzed and photographed, and the representative histological images were recorded. […]

Series [3] relates to CP2c transcriptional targets (FN1, OCT4, and SNAI2) in HepG2 cells. As to the kind of experiment: RT‐qPCR transcription inhibition of CP2c targets. The conditions noted are these: summary for both cell lines, 36 h after treatment; read-out: average TI50 (50% transcriptional inhibition) values of the three CP2c targets. It counts as cell-based, human. How it is done:
To quantify mRNA expression of the gene of interest, cells were harvested, and total cellular RNA was extracted using Qiazol reagent (Qiagen, 79306). Purified RNA was dissolved in Diethyl pyrocarbonate (DEPC) water. Reverse transcription was performed using a High‐Capacity cDNA reverse transcription kit (Toyobo, FSQ‐201) in the presence of 400 ng of total RNA and 10 pmol random hexamer. PCR was performed using rTaq Plus 5X PCR master mix (Elpis‐Biotech, EBT‐1319) and the SYBR green Master Mix Kit. Amplifications were performed using a Light cycler 1.5 real‐time PCR system.^[ [43] ^] The relative mRNA expression levels were determined using the 2(−ΔCt) method, with GAPDH transcript levels serving as an internal control. Errors were calculated from at least two independent experiments. Oligonucleotide primers used in RT–qPCR are listed in Table S2 (Supporting Information).
For orientation: Quantitative PCR measures a nucleic acid by following its amplification.

From article PMC10667816, “A Cell‐Penetrant Peptide Disrupting the Transcription Factor CP2c Complexes Induces Cancer‐Specific Synthetic Lethality” (Advanced Science, 2023) come the findings set out here.

*1 amine or outer side, *2 acyl side, *3 side chain or, on linkers, in order; H or OH if unused. Where a SMILES comes first, the peptide text is derived from it. Side-chain parts run from the residue outwards. The star is where a group is joined. γGlu = O=C(O)[C@H](CCC(=O)[*:2])N[*:1]; Palmitoyl = CCCCCCCCCCCCCCCC(=O)*

As a reminder, the half-life is the time in which the quantity being followed falls by half. Low readings indicate fast loss, high ones slow loss.

As to `CCCCCCCCCCCCCCCC(=O)N[C@@H](CCC(=O)NCCCC[C@H](NC(=O)CNC(=O)CNC(=O)[C@@H]1CCCN1C(=O)[C@H](CCCNC(=N)N)NC(=O)[C@H](CCC(N)=O)NC(=O)[C@@H]1CCCN1C(=O)[C@H](Cc1ccc(O)cc1)NC(=O)[C@H](CC(N)=O)NC(C)=O)C(=O)NCC(=O)NCC(=O)N[C@@H](CS)C(=O)N[C@@H](CCCNC(=N)N)C(=O)NCC(=O)N[C@@H](CC(=O)O)C(=O)N[C@@H](CCCCN)C(=O)NCC(=O)N1CCC[C@H]1C(=O)N[C@@H](CC(=O)O)C(=O)N[C@@H](CS)C(N)=O)C(=O)O` [ACP52CGK] (Ac-NYPQRPGGK([γGlu-Palmitoyl])GGCRGDKGPDC-NH2), the half-life in series [1] was ~5.26 h.
Take `CC(=O)N[C@@H](CC(N)=O)C(=O)N[C@@H](Cc1ccc(O)cc1)C(=O)N1CCC[C@H]1C(=O)N[C@@H](CCC(N)=O)C(=O)N[C@@H](CCCNC(=N)N)C(=O)N1CCC[C@H]1C(=O)N[C@@H](CS)C(=O)N[C@@H](CCCNC(=N)N)C(=O)NCC(=O)N[C@@H](CC(=O)O)C(=O)N[C@@H](CCCCN)C(=O)NCC(=O)N1CCC[C@H]1C(=O)N[C@@H](CC(=O)O)C(=O)N[C@@H](CS)C(N)=O` [ACP52C] (Ac-NYPQRPCRGDKGPDC-NH2): in series [2], the tumor weight entry is listed as “significantly reduced tumor weight”. Also, the IC50 in series [3] lay within 35 to 40 µM.
